The values that follow come from patent publication US6586369B1, “Fungicidal agents containing pyrrolidones as their active agents and use thereof for treating plants” (BASF Aktiengesellschaft, priority 2000, dated 2003).

One data set relates to harmful fungi. The data set is described as follows: Fungicidal activity, general statement, no test named. The conditions noted are these: no test conditions given.

Broadly, the melting point is the temperature, or range, at which the solid turns liquid. For the compound `O=C1C(Br)=C(c2ccccc2)C(=O)N1Nc1ccccc1` [No. 486, 1-Anilino-3-bromo-4-phenylpyrrol-2,5-dione], the melting point was 148 to 149 °C. As to `C[S+]([O-])C1=C(c2ccccc2)C(=O)N(Nc2ccccc2)C1=O` (stereo not shown) [No. 1042, 1-Anilino-3-methylsulfinyl-4-phenylpyrrol-2,5-dione], the melting point was 178 to 180 °C.

With `O=C1C(Cl)=C(c2ccccc2)C(=O)N1Nc1ccccc1` [No. 1, 1-Anilino-3-chloro-4-phenylpyrrol-2,5-dione], the melting point is 143 to 145 °C. For the same compound, the “fungicidal activity (in words)” value in the data set with harmful fungi was “excellent fungicidal activity”.
